# Test: In vitro inhibition of Acetylcholinesterase Activity in octopus brain
smiles,measurement,value
CCCCCSC(=O)OCC[N+](C)(C)C [Trimethyl-(2-pentylsulfanylcarbonyloxy-ethyl)-ammonium; chloride],Ki,2 µM
